US20240058392A1, “COMPOSITION COMPRISING SEA CUCUMBER GENITAL GLAND EXTRACT, COMPOUND DERIVED FROM SEA CUCUMBER OVARY EXTRACT, AND USE THEREOF” (BIOINFORMATICS & MOLECULAR DESIGN RESEARCH CENTER, priority 2020, published 2024)
Like-named read-outs stand apart in the source and are kept apart here.

Columns and labels:
3T3-L1 cells [1] = assay: Glucose Uptake-Glo Assay, saponin compounds; type: cell-based; conditions: Mus musculus, read-out: Fold Relative to Control (glucose uptake)
Procedure: The 3T3-L1 cells were cultured in a high glucose DMEM medium in which 10% Calf serum and penicillin-streptomycin were added, and subcultured per 2-3 days. […] After 2 days, it was replaced with a medium containing insulin, and the medium was replaced again per 2 days to induce differentiation.
For the differentiation-completed 3T3-L1 cells, starvation was conducted for 16 hours, and then a sea cucumber-derived single compound was treated in a serum-free medium at a concentration of 2.5 ug/mL for 6 hours. The cultured supernatant was recovered and for the 3T3-L1 cells, using Glucose Uptake-Glo Assay Kit, the glucose transport activity degree was measured using a luminometer.

[2] = system: FAS, PPARγ, C/EBPα, and FABP4; assay: Expression of adipogenesis-related proteins in 3T3-L1 cells treated with single compounds; type: cell-based
Procedure: In order to investigate the effect on expression of the adipocytes differentiation-related proteins by the sea cucumber extract, expression of the related proteins was confirmed through western blot. The differentiation-completed 3T3-L1 cells were washed with PBS, and then lysis was conducted with RIPA buffer, and then the proteins were separated by molecular weight through SDS-PAGE. After that, it was transferred to a PVDF membrane and it was blocked using 5% skim milk for 30 minutes. Then, it was reacted with a primary antibody, and then a secondary antibody was attached to confirm protein expression using an ECL solution.
In order to figure out the mechanism of the fat accumulation inhibitory efficacy of the single compound examined above, the degree of expression of proteins of FAS, PPARγ, C/EBPα, and FABP4, which were adipogenesis-related proteins was confirmed.

3T3-L1 cells [3] = assay: Oil red O staining, single compounds of sea cucumber ovary extract; type: cell-based
Procedure: The differentiation-completed 3T3-L1 cells were fixed with 4% formaldehyde for 1 hour, and then fats were stained using a 0.5% Oil red O staining solution to confirm the degree of differentiation. For quantitative analysis of adipose differentiation, the dye stained in the cells was dissolved with 100% isopropyl alcohol and the absorbance was measured at 500 nm.
In order to investigate the effect on adipose differentiation of the 3T3-L1 cells of the single compound in the sea cucumber ovary extract, a total 8 of compounds were treated with a differentiation medium at a concentration of 2.5 and 5 μg/ml for 48 hours.

3T3-L1 cells [4] = assay: 3T3-L1 cell viability of single compounds separated from sea cucumber ovary extract; conditions: single compounds 2.5-5 μg/ml
3T3-L1 cells [5] = system: 3T3-L1 cells
[6] = differentiated 3T3-L1 cells, compound 2.5 ug/mL, 6 hours, serum-free medium
[7] = 1 μg/ml, compared to the control group

Row | Structure (SMILES) | fold induction at 2.5 µg/mL (3T3-L1 cells [1]; [6]) | expression of adipogenesis-related proteins FAS, PPARγ, C/EBPα, and FABP4 [2] | fold induction at 2.5 µg/mL (3T3-L1 cells [1]; 3T3-L1, 6 h) | also measured
1 | C=C(C)CCC[C@](C)(O)[C@@H]1[C@@H]2CC3(C)C4=CCC5C(C)(C)[C@@H](O[C@@H]6OCC(O[C@@H]7OC(CO)C(O)[C@H](O)C7O)[C@H](O)C6O[C@@H]6OC(CO)C(O[C@@H]7OC(CO)C(O)[C@H](O[C@@H]8OC(CO)C(O)[C@H](O)C8O)C7O)[C@H](O)C6O)CC[C@]5(C)C4CCC13C(=O)O2 (stereo partly shown) [S1] | 1.25 | – | – | –
2 | C=C(C)CCC[C@](C)(O)[C@@H]1[C@@H]2CC3(C)C4=CCC5C(C)(C)[C@@H](O[C@@H]6OCC(O[C@@H]7OC(CO)C(O)[C@H](O)C7O)[C@H](O)C6O[C@@H]6OC(C)C(O[C@@H]7OC(CO)C(O)[C@H](O[C@@H]8OC(CO)C(O)[C@H](O)C8O)C7O)[C@H](O)C6O)CC[C@]5(C)C4CCC13C(=O)O2 (stereo partly shown) [S2] | 1.43 | – | – | expression of adipogenesis-related proteins FAS, PPARγ, C/EBPα, and FABP4 ([2]; compared to the control, concentration not given): a significant difference in protein expression was not shown
3 | C=C(C)CCC[C@](C)(O)[C@@H]1[C@@H]2CC3(C)C4=CCC5C(C)(C)[C@@H](O[C@@H]6OCC(O[C@@H]7OC(CO)C(O)[C@H](O)C7O)[C@H](O)C6O[C@@H]6OC(C)C(O[C@@H]7OC(CO)C(O)[C@H](O[C@@H]8OC(CO)C(O)[C@H](OC)C8O)C7O)[C@H](O)C6O)CC[C@]5(C)C4CCC13C(=O)O2 (stereo partly shown) [S3] | 1.1 | – | – | expression of adipogenesis-related proteins FAS, PPARγ, C/EBPα, and FABP4 [2, 7]: definitely reduced; expression of adipogenesis-related proteins FAS, PPARγ, C/EBPα, and FABP4 ([2]; from 2.5 μg/ml): expression of the related proteins was definitely reduced; inhibition at 1 µg/mL (3T3-L1 cells [3]; Mus musculus, 3T3-L1, 1 μg/ml (lowest of the series from 1 μg/ml to 5 μg/ml), read-out: inhibition of fat accumulation): ~16%; inhibition at 5 µg/mL (3T3-L1 cells [3]; Mus musculus, 3T3-L1, 5 μg/ml (highest of the series from 1 μg/ml to 5 μg/ml), read-out: inhibition of fat accumulation): ~80%; inhibition of fat accumulation (3T3-L1 cells [3]; middle concentration of the series from 1 μg/ml to 5 μg/ml (2.5 μg/ml by the method)): ~40%; change of 3T3-L1 cell viability (3T3-L1 cells [4]): a significant decrease was shown
4 | C=C(C)CCC[C@@]1(C)OC(=O)C23CC=C4C(CCC5C(C)(C)[C@@H](O[C@@H]6OCC(O[C@@H]7OC(CO)C(O)[C@H](O[C@@H]8OC(CO)C(O)[C@H](OC)C8O)C7O)[C@H](O)C6O[C@@H]6OC(CO)C(O[C@@H]7OC(CO)C(O)[C@H](O[C@@H]8OC(CO)C(O)[C@H](O)C8O)C7O)[C@H](O)C6O)CC[C@]45C)C2(C)CC(=O)C31 (stereo partly shown) [S4] | 1.6 | – | – | expression of adipogenesis-related proteins FAS, PPARγ, C/EBPα, and FABP4 [2, 7]: definitely reduced; expression of adipogenesis-related proteins FAS, PPARγ, C/EBPα, and FABP4 ([2]; from 2.5 μg/ml): expression of the related proteins was definitely reduced; change of 3T3-L1 cell viability (3T3-L1 cells [4]): a significant decrease was shown
5 | C=C(C)CCC[C@@]1(C)OC(=O)C23CC=C4C(CCC5C(C)(C)[C@@H](O[C@@H]6OCC(O[C@@H]7OC(CO)C(O)[C@H](O[C@@H]8OC(CO)C(O)[C@H](O)C8O)C7O)[C@H](O)C6O[C@@H]6OC(CO)C(O[C@@H]7OCC(O)[C@H](O[C@@H]8OC(CO)C(O)[C@H](OC)C8O)C7O)[C@H](O)C6O)CC[C@]45C)C2(C)CC(=O)C31 (stereo partly shown) [S5, holotoxin D1] | – | expression of the related proteins was definitely reduced | 1.38 | change of 3T3-L1 cell viability (3T3-L1 cells [5]): a significant decrease was shown
6 | C=C(C)CCC[C@@]1(C)OC(=O)C23CC=C4C(CCC5C(C)(C)[C@@H](O[C@@H]6OCC(O[C@@H]7OC(CO)C(O)[C@H](O[C@@H]8OC(CO)C(O)[C@H](O)C8O)C7O)[C@H](O)C6O[C@@H]6OC(C)C(O[C@@H]7OC(CO)C(O)[C@H](O[C@@H]8OC(CO)C(O)[C@H](OC)C8O)C7O)[C@H](O)C6O)CC[C@]45C)C2(C)CC(=O)C31 (stereo partly shown) [S6, holotoxin B] | – | a definite decrease in protein expression | 1.24 | –
7 | C=C(C)CCC[C@@]1(C)OC(=O)C23CC=C4C(CCC5C(C)(C)[C@@H](O[C@@H]6OCC(O[C@@H]7OC(CO)C(O)[C@H](O[C@@H]8OC(CO)C(O)[C@H](OC)C8O)C7O)[C@H](O)C6O[C@@H]6OC(C)C(O[C@@H]7OC(CO)C(O)[C@H](O[C@@H]8OC(CO)C(O)[C@H](OC)C8O)C7O)[C@H](O)C6O)CC[C@]45C)C2(C)CC(=O)C31 (stereo partly shown) [S8, holotoxin A] | – | a definite decrease in protein expression | 1.43 | –
8 | C=C(C)CCC[C@](C)(O)[C@@H]1[C@@H]2CC3(C)C4=CCC5C(C)(C)[C@@H](O[C@@H]6OCC(O[C@@H]7OC(CO)C(O)[C@H](O)C7O)[C@H](O)C6O[C@@H]6OC(C)C(O[C@@H]7OC(CO)C(O)[C@H](O)C7O)[C@H](O)C6O)CC[C@]5(C)C4CCC13C(=O)O2 (stereo partly shown) [S9] | 1.03 | – | – | –
